{
  "source": "patent US20040040047A1",
  "about": "(priority 1998, published 2004)",
  "key": {"[1]": {"target": "FKBP12V36 (Fv) (Homo sapiens, UniProt P62942, F37V)", "sequence (P62942 whole entry F37V)": "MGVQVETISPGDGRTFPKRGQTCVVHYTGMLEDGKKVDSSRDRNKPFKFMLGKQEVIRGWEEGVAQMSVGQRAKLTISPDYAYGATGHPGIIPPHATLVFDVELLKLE", "assay": "CID binding to mutant FKBP12 (F36V, Fv)", "details": "relative to AP1903"}, "[2]": {"target": "T1, S-Fv3-Casp3 (Homo sapiens, UniProt P62942, F37V)", "T1 construct": "caspase-3 (same polypeptide); expressed in transfected cells; host or cells: Jurkat TAg", "T1 sequence (P62942 2-108 F37V)": "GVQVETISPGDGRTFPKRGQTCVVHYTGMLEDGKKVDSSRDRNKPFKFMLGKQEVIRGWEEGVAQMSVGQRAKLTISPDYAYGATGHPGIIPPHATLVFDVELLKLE", "T1 sequence (P42574 2-277 partner limits assumed)": "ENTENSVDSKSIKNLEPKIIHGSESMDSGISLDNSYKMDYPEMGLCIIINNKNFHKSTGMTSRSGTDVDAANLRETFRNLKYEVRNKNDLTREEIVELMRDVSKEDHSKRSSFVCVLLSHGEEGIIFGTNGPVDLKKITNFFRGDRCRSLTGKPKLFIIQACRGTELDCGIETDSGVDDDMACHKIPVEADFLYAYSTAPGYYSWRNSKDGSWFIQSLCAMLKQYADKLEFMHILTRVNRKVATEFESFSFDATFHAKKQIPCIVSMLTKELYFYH", "assay": "SEAP reporter assay, Jurkat TAg cells, S-Fv3-Casp3", "assay_type": "cell-based", "details": "construct containing three Fvs; read-out: IC50 (decrease in SEAP activity)", "protocol": "(§1) Jurkat TAg cells (10^7) in log phase growth were electroporated (950 μF, 250 V) with expression plasmid and 2 μg SRα-SEAP. […] Units of SEAP activity are reported directly and as a percentage of activity relative to no stimulation (“% Relative SEAP activity”). All experiments were repeated at least three times and representative experiments performed with duplicate samples are shown."}, "[3]": {"target": "T2, S-Fv2-Casp1 (Homo sapiens, UniProt P62942, F37V)", "T2 construct": "caspase-1 (same polypeptide); expressed in transfected cells; host or cells: Jurkat TAg", "T2 sequence (P62942 2-108 F37V)": "as the sequence (P62942 2-108 F37V) above", "T2 sequence (P29466 2-404 partner limits assumed)": "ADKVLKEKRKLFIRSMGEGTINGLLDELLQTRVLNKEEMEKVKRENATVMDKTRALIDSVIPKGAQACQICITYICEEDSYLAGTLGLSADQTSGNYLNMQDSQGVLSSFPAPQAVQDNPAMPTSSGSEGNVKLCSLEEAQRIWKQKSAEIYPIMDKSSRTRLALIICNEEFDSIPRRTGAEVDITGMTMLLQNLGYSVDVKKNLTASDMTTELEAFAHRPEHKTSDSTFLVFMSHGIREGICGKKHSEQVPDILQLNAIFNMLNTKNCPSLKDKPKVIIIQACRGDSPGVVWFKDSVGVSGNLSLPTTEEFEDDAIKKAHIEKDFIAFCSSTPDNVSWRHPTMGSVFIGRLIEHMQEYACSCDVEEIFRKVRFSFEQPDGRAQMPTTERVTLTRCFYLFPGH", "assay": "SEAP reporter assay, Jurkat TAg cells, S-Fv2-Casp1", "assay_type": "cell-based", "details": "caspase-1 fused to two Fvs, no linker", "protocol": "as §1"}, "[4]": {"target": "T3, Fv2-casp-3 (Homo sapiens, UniProt P62942, F37V)", "T3 construct": "caspase-3 (same polypeptide); expressed in transfected cells; host or cells: Jurkat TAg", "T3 sequence (P62942 2-108 F37V)": "as the sequence (P62942 2-108 F37V) above", "assay": "SEAP reporter assay, Jurkat TAg cells transfected with Fv2-casp-3", "assay_type": "cell-based", "details": "2 μg Fv2-casp-3, Jurkat TAg, in the presence of AP1903"}, "[5]": {"target": "T4, Fv2-casp-3/S163 (Homo sapiens, UniProt P42574+P62942, C163S/F37V)", "T4 construct": "caspase-3 C163S (same polypeptide); expressed in transfected cells; host or cells: Jurkat TAg", "assay": "SEAP reporter assay, Jurkat TAg cells transfected with inactive Fv2-casp-3/S163", "assay_type": "cell-based", "details": "100 nM AP1903, enzymatically inactive caspase-3", "protocol": "Jurkat TAg cells (10^7) in log phase growth were electroporated (950 μF, 250V; Gene Pulser II) with expression plasmid and 1-2 μg SRα-SEAP. After 24 hours, transformed cells were stimulated with CID or anti-Fas antibody (CH.11, Kamiya Biomedical). After an additional 20 hours, supernatants were assayed for SEAP activity as described previously (15). Units of SEAP activity are reported directly and as a percentage of activity relative to no stimulation within the same transfections (% Relative Activity).\nIn contrast to caspase-1 and Fas, conditional caspase-3 alleles are not apparently autotoxic (FIGS. 7-9). With reference to FIGS. 7 and 8, Jurkat TAg cells were transiently-transfected with: 2 μg Fv2-casp-3 (open squares), or 2 μg Fv2-casp-3/S163 (closed squares). With reference to FIG. 9, Jurkat TAg cells were transfected with: 2 μg Fpk3-casp-3/S163 (closed triangles), 2 μg Fpk3-casp-3 (open squares), or 2 μg Fpk3-Δ20casp-3 (closed squares). After 20 hours, transfected cells were treated and analyzed as before. Data is representative of at least three independent experiments performed in duplicate."}, "[6]": {"target": "T3, Fv2-casp-3", "assay": "Western blot of processing and degradation of Fv2-casp-3 in Jurkat cells", "assay_type": "cell-based", "protocol": "Jurkat TAg cells were electroporated with 2 μg of plasmid, cultured 36 hours, and stimulated with drug for the indicated time period. Approximately 5×10^5 cells were lysed in 100 μl RIPA buffer (0.01M TrisHCl pH 8.0, 140 mM NaCl, 1% Triton X-100, 1 mM phenylmethylsulfonyl fluoride, 1% sodium deoxycholate, 0.1% SDS) on ice for 30 minutes. Cell debris were pelleted and supernatants were boiled in 1:1 Laemmli sample buffer (with 5% β-ME) for 5 minutes. […] Membranes were incubated with monoclonal anti-HA epitope antibody, HA.11 (BABCO) followed by polyclonal HRP-conjugated goat anti-mouse antibody (Bio-Rad). Bands were detected with SuperSignal-Chemiluminescent Substrate (Pierce).\nProcessing of caspase-3, and other caspases, ordinarily involves two or more cleavages after aspartic acid residues. To confirm that the CID-mediated diminution of reporter activity was caused by activation of the conditional caspases, the processing and degradation of conditional caspase-3 was directly examined. Jurkat cells were transfected 2 μg Fv2-casp-3 or Fv2-casp-3/S163. […] Following these incubations, cell extracts were analyzed by western blotting using monoclonal antibodies to an epitope tag (HA) placed at both ends of the construct.\nThe breakdown products of caspase-3 activation were not seen even though epitope tags were present at both ends of the protein. […] Therefore, homomultimerization of the caspases, caspase-1 and caspase-3, is sufficient for their activation."}, "[7]": {"target": "T5, conditional YAMA (Homo sapiens, UniProt P62942, F37V)", "T5 construct": "caspase-3 / YAMA (same polypeptide); expressed in transfected cells; host or cells: JD and CR-2a (smooth muscle cell lines from BPH patients)", "T5 sequence (P62942 2-108 F37V)": "as above", "T5 sequence (P42574 2-277 partner limits assumed)": "as the sequence (P42574 2-277 partner limits assumed) above", "assay": "Luciferase survival assay, BPH-derived smooth muscle cells (JD, CR-2a) transfected with conditional YAMA", "assay_type": "cell-based", "text": "(§2) Conditional Fas, YAMA and a YAMA construct containing a single, inactivating point mutation were cotransfected with a luciferase reporter plasmid (pGL2) into JD and CR-2a cell lines. These are smooth muscle cell lines derived from prostate tissue samples taken from patients with BPH. […] Cells were then lysed and assayed for luciferase activity as a marker of cell survival.\n(§3) It is worth noting that a conditional Fas-based treatment for BPH is not possible since the Fas construct was not effective in causing apoptosis in BPH derived cell lines. It is quite likely that Fas-based methods will be ineffective in many other cell types, thus severely limiting the utility of this approach."}, "[8]": {"target": "T6, conditional Fas (Homo sapiens, UniProt P62942, F37V)", "T6 construct": "Fas cytoplasmic portion (same polypeptide); expressed in transfected cells; host or cells: JD and CR-2a (smooth muscle cell lines from BPH patients)", "T6 sequence (P62942 2-108 F37V)": "as the sequence (P62942 2-108 F37V) above", "T6 sequence (P25445 191-335 partner limits assumed)": "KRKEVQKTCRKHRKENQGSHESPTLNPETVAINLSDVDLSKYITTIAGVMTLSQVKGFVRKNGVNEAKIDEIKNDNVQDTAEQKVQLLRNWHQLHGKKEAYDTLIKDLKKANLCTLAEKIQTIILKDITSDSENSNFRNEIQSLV", "assay": "Luciferase survival assay, BPH-derived smooth muscle cells transfected with conditional Fas", "assay_type": "cell-based", "details": "with or without AP1903, 24 hours", "text": "as §2, §3"}, "[9]": {"target": "T7, inactivated YAMA (Homo sapiens, UniProt P42574+P62942, C163S/F37V)", "T7 construct": "caspase-3 C163S (same polypeptide); expressed in transfected cells; host or cells: JD and CR-2a (smooth muscle cell lines from BPH patients)", "assay": "Luciferase survival assay, BPH-derived smooth muscle cells transfected with inactivated YAMA", "assay_type": "cell-based", "details": "with or without AP1903, 24 hours", "text": "as §2, §3"}, "[10]": {"tested_on": "JD-2a cells", "assay": "Fluorescent microscopy of JD-2a cells infected with Adv-Fv1-YAMA", "assay_type": "cell-based, human", "details": "Adv-Fv1-YAMA MOI ~25, 50 nM AP1903 for 24 hours", "protocol": "Replication deficient (ΔE1) adenoviral vectors expressing green flourescent protein and conditional Caspase 1 (ICE) or Caspase 3 (YAMA) were engineered. These vectors independently express green fluorescent protein so that infected cells are easily identified by their green color under fluorescent microscopy.\n40,000 JD-2a cells per well were plated in 24-well plates and infected at a multiplicity-of-infection (MOI) of ˜25 with Adv-Fv1-YAMA, an adenoviral vector expressing CID-regulated YAMA. […] All of the cells incubated with virus and maintained in control media appeared green, and were clearly attached and viable, similar to non-fluorescent non-infected JD-2a cells (FIG. 47b)."}, "[11]": {"tested_on": "RM-1 cells", "details": "single treatment with adenovirus expressing HSV-tk and ganciclovir; cited from earlier work"}, "[12]": {"tested_on": "tumor cell types expressing herpes virus tk", "details": "cited from earlier work"}},
  "data": [
    {"compound": "FK1012", "values": [
      {"measurement": "lower affinity of FK1012 for Fv versus AP1903", "setting": "[1]", "result": "ten-fold"},
      {"measurement": "IC50", "setting": "[2]", "result": "~20", "unit": "nM"},
      {"measurement": "IC50", "setting": "[3]", "result": 1, "unit": "nM"}
    ]},
    {"compound": "CC[C@H](C(=O)N1CCCC[C@H]1C(=O)O[C@H](CCc1ccc(OC)c(OC)c1)c1cccc(OCC(=O)NCCNC(=O)COc2cccc([C@@H](CCc3ccc(OC)c(OC)c3)OC(=O)[C@@H]3CCCCN3C(=O)[C@@H](CC)c3cc(OC)c(OC)c(OC)c3)c2)c1)c1cc(OC)c(OC)c(OC)c1", "note": "[AP1903]", "values": [
      {"measurement": "reduction in reporter activity", "setting": "[4]", "result": "≈ 65%"},
      {"measurement": "reduction of reporter activity", "setting": "[5]", "result": "could not reduce reporter activity"},
      {"measurement": "time to full degradation of Fv2-casp-3", "setting": "[6]; 100 nM AP1903", "result": "four"},
      {"measurement": "time to complete degradation of full-length caspase-3", "setting": "[6]; 500 nM AP1903", "result": "≤ 2", "unit": "h"},
      {"measurement": "concentration sufficient to cause the processing and degradation of the majority of Fv2-casp-3", "setting": "[6]; treated for eight hours, half-log dilutions", "result": 10, "unit": "nM"},
      {"measurement": "reduction in reporter activity", "setting": "[7]; 100 μM AP1903 for 24 hours", "result": 82, "unit": "%"},
      {"measurement": "luciferase activity", "setting": "[7]; treated with 100 μM AP1903 for 24 hours, 668±67 without AP1903", "result": "119±13"},
      {"measurement": "reduction in the percentage of surviving cells", "setting": "[8]", "result": "no significant reduction"},
      {"measurement": "reduction in the percentage of surviving cells", "setting": "[9]", "result": "no significant reduction"},
      {"measurement": "cells either dead or in the process of undergoing apoptosis", "setting": "[10]", "result": "> 99", "unit": "%"}
    ]},
    {"compound": "Nc1nc(O)c2ncn(COC(CO)CO)c2n1", "note": "[ganciclovir]", "values": [
      {"measurement": "reduction in lung colonization", "setting": "[11]", "result": 40, "unit": "%"},
      {"measurement": "dose up to which the cell line was essentially immune", "setting": "[12]; ESB cell line", "result": "up to 1 μg/mL"},
      {"measurement": "time necessary to effect a substantial amount of cell death", "setting": "[12]; high doses of ganciclovir", "result": "6 to 22", "unit": "days"}
    ]}
  ]
}
